According to ChEMBL document CHEMBL1201862, “PubChem BioAssay data set” (2004):
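Grown in 96-well plates, cells were treated for 48 hours with each compound at five concentrations. Insufficient inhibition: endpoint recorded as highest concentration tested. The concentration for 50% growth inhibition is given as GI50.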 Calls of active or inactive are those of the source. Cut-off read from the data, not from the text of the source: active = GI50 up to about 1.1 µM and inactive = higher.

Experiments:
Assay in all cases: NCI tumour cell line growth inhibition, 48 h
[1] = system: U-251
[2] = system: M14
[3] = system: IGROV-1
[4] = system: SNB-75
[5] = system: RPMI-8226
[6] = system: UACC-257
[7] = system: SK-MEL-28
[8] = system: NCI-H522
[9] = system: 786-0
[10] = system: ACHN
[11] = system: NCI-H23
[12] = system: OVCAR-8
[13] = system: HT-29
[14] = system: HOP-92
[15] = system: MDA-MB-231
[16] = system: Hs-578T
[17] = system: DU-145
[18] = system: MCF7

Measured: GI50

Cc1c(CC/C(=N\Nc2ccc([N+](=O)[O-])cc2[N+](=O)[O-])c2ccccc2)c2ccccc2n1C
inactive: [1] > 100 µM | [2] > 100 µM | [3] > 100 µM | [4] > 56.1 µM | [5] 20.7 µM | [6] > 100 µM | [7] > 100 µM | [8] > 100 µM | [9] > 100 µM | [10] > 100 µM | [11] > 100 µM | [12] > 100 µM | [13] > 100 µM | [14] 97.7 µM

COc1ccc(/C(C#N)=C/c2ccc(OC)c(OC)c2)cc1
inactive: [1] > 100 µM | [2] > 100 µM | [15] > 100 µM | [3] > 100 µM | [4] 56.9 µM | [5] > 100 µM | [16] > 100 µM | [6] > 100 µM | [7] > 100 µM | [8] > 100 µM | [9] > 100 µM | [10] > 100 µM | [17] > 100 µM | [11] > 100 µM | [12] > 100 µM | [13] > 100 µM | [14] > 100 µM | [18] > 100 µM

CCn1c2ccccc2c2c(-c3ccccc3)cc3c(c21)C(=O)N(c1ccccc1)C3=O
inactive: [1] > 100 µM | [2] > 100 µM | [3] > 100 µM | [4] 89.5 µM | [6] > 100 µM | [7] > 100 µM | [8] > 100 µM | [9] > 100 µM | [10] 99.8 µM | [11] > 100 µM | [12] > 100 µM | [14] 34.4 µM

CCOC(=O)CNC(SC)=C(C#N)C#N
inactive: [1] > 100 µM | [2] > 100 µM | [3] > 100 µM | [4] > 100 µM | [5] > 100 µM | [6] > 100 µM | [8] > 100 µM | [9] > 100 µM | [11] > 100 µM | [12] > 100 µM | [13] > 100 µM | [14] > 100 µM

CCOC(=O)C(=O)Nc1nc2ccc(C)cc2s1
inactive: [1] > 100 µM | [2] > 100 µM | [3] > 100 µM | [4] > 100 µM | [5] > 100 µM | [6] > 100 µM | [7] > 100 µM | [8] > 100 µM | [9] 27.9 µM | [10] > 100 µM | [11] > 100 µM | [12] > 100 µM | [13] > 100 µM | [14] > 100 µM

Cc1ccc(Cl)c2c1NC(=O)/C2=N\Nc1ccccc1[N+](=O)[O-]
inactive: [1] 31.6 µM | [2] 42.6 µM | [15] 75 µM | [3] 6.53 µM | [4] 54.5 µM | [5] 52.8 µM | [16] 22.4 µM | [6] 82.2 µM | [7] > 100 µM | [9] 28.8 µM | [10] 76.7 µM | [17] 47.1 µM | [11] 47.6 µM | [12] 39.7 µM | [13] 35.8 µM | [14] 42.5 µM | [18] 36.3 µM

COCC1N=C(c2cc(OC)c(OC)c(OC)c2-c2cc3c(cc2C2OCCCO2)OCO3)O[C@H]1c1ccccc1 (stereo not given in full)
inactive: [1] > 100 µM | [2] > 100 µM | [3] > 100 µM | [4] > 100 µM | [5] > 100 µM | [6] > 100 µM | [7] > 100 µM | [8] > 100 µM | [9] > 100 µM | [10] > 100 µM | [11] > 100 µM | [12] > 100 µM | [13] > 100 µM | [14] > 100 µM

COc1ccc(S(=O)(=O)N/N=C/CN2C(=O)c3ccccc3C2=O)cc1
inactive: [1] > 100 µM | [2] > 100 µM | [3] > 100 µM | [4] > 100 µM | [5] > 100 µM | [6] > 100 µM | [8] > 100 µM | [9] > 100 µM | [10] > 100 µM | [11] > 100 µM | [12] > 100 µM | [13] > 100 µM

CNC1c2ccccc2C(=O)c2cc3c(cc21)OCCOCCOCCOCCO3 (stereo not given)
inactive: [1] > 100 µM | [2] > 100 µM | [15] 82.2 µM | [3] > 100 µM | [4] > 100 µM | [5] 34.8 µM | [16] > 100 µM | [6] > 100 µM | [7] > 100 µM | [8] 34.1 µM | [9] > 100 µM | [10] > 100 µM | [12] > 100 µM | [13] 54 µM | [18] 55.5 µM

COC(=O)/C=C1/CCC(C(=O)OC)N1 (stereo not given)
inactive: [1] > 100 µM | [2] > 100 µM | [3] > 100 µM | [4] > 100 µM | [5] > 100 µM | [6] > 100 µM | [7] > 100 µM | [9] > 100 µM | [10] > 100 µM | [11] > 100 µM | [12] > 100 µM | [14] > 100 µM
